The values that follow come from ChEMBL document CHEMBL1133339, “Leukotriene B4 photoaffinity probes: design, synthesis and evaluation of new arylazide-1,3-disubstituted cyclohexanes” (Bioorg Med Chem Lett, 2000).

The test concerns the target Leukotriene B4 receptor 1 (Homo sapiens, UniProt Q15722). In words: Compound was tested for inhibition against binding of radioligand [3H]LTB4 to Leukotriene B4 receptor in human neutrophil membranes. Type of test: cell membranes.

Sequence of Leukotriene B4 receptor 1 (Q15722 whole entry): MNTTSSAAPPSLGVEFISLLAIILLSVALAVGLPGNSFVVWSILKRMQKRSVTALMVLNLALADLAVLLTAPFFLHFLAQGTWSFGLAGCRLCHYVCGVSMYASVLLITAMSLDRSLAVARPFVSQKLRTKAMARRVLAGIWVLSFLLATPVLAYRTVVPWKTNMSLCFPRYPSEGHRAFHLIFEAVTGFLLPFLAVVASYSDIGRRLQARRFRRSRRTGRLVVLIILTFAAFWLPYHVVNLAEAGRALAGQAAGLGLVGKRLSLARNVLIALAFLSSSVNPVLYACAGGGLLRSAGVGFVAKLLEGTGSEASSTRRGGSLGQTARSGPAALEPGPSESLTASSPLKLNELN

A word on the IC50: it is the point on the concentration scale where inhibition reaches its midpoint. A low value points to greater potency. With `O=C(O)CC1(O)CCCC(/C=C/C(O)CCCCc2ccccc2)C1` (stereo not drawn), the half-inhibitory concentration (IC50) was found to be 300 nM. In other words, the sub-micromolar range.
The result for `[N-]=[N+]=Nc1ccc(CCCCC(O)/C=C/C2CCCC(O)(CC(=O)O)C2)cc1I` (stereo not drawn) reads above 10000 nM.
The value for `CN(C)C(=O)CC1(O)CCCC(/C=C/C(O)CCCCc2ccc(N=[N+]=[N-])cc2)C1` (stereo in doubt; 4b) was 2000 nM.
`CN(C)C(=O)CC1(O)CCCC(/C=C/C(O)CCCCc2ccc(N=[N+]=[N-])c(I)c2)C1` (stereo in doubt; 6b) gave an IC50 above 10000 nM.
In the case of `CN(C)C(=O)CC1(O)CCCC(/C=C/C(O)CCCCc2ccc(N=[N+]=[N-])cc2)C1` (stereo in doubt), the IC50 was found to be 700 nM.
Take `[N-]=[N+]=Nc1ccc(CCCCC(O)/C=C/C2CCCC(O)(CC(=O)O)C2)cc1` (stereo not drawn): the IC50 turned out to be 2000 nM.
`CN(C)C(=O)CC1(O)CCCC(/C=C/C(O)CCCCc2ccc(N=[N+]=[N-])c(I)c2)C1` (stereo in doubt) had an IC50 of 6000 nM.
The result for `CN(C)C(=O)CC1(O)CCCC(/C=C/C(O)CCCCc2ccccc2)C1` (stereo not drawn) reads 40 nM.
